These results are taken from paper PMC8154566, “Scaffold-Hopping Strategy on a Series of Proteasome Inhibitors Led to a Preclinical Candidate for the Treatment of Visceral Leishmaniasis” (Journal of Medicinal Chemistry, 2021).

The target of one series is AuroraB (Homo sapiens, UniProt Q96GD4). The experiment in a line: Kinase screen AuroraB. The class given is biochemical.
For series [1] the following is noted: cited from earlier work.
Another series addresses LCK (Homo sapiens, UniProt P06239). Briefly: Kinase screen LCK. Format: biochemical.
Details of series [2]: method as in PMID 30962368. To be noted: cited from earlier work.
On the set-up of series [3]: method as in PMID 30962368. The note with it: dosed in rats at 300 mg/kg; cited from earlier work.
Series [4] is described as follows: Kinetic aqueous solubility by CLND. Format: physicochemical. In a few lines: (§1)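 Intramacrophage L. donovani amastigotes in differentiated THP-1 cells, run per an earlier protocol but with 96 h compound exposure instead of 72 h. Aqueous solubility also follows a previously described method.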
Series [5] deals with L. donovani amastigotes. The note with it: cited from earlier work; for LdInMac pIC50: supplementary csv, flagged as reported previously in the main tables.
The target in a further series is PI3Kγ (Homo sapiens, UniProt P48736). The experiment in a line: Kinase screen PI3Kγ. The class given is biochemical.
Sequence of PI3Kγ (P48736 whole entry): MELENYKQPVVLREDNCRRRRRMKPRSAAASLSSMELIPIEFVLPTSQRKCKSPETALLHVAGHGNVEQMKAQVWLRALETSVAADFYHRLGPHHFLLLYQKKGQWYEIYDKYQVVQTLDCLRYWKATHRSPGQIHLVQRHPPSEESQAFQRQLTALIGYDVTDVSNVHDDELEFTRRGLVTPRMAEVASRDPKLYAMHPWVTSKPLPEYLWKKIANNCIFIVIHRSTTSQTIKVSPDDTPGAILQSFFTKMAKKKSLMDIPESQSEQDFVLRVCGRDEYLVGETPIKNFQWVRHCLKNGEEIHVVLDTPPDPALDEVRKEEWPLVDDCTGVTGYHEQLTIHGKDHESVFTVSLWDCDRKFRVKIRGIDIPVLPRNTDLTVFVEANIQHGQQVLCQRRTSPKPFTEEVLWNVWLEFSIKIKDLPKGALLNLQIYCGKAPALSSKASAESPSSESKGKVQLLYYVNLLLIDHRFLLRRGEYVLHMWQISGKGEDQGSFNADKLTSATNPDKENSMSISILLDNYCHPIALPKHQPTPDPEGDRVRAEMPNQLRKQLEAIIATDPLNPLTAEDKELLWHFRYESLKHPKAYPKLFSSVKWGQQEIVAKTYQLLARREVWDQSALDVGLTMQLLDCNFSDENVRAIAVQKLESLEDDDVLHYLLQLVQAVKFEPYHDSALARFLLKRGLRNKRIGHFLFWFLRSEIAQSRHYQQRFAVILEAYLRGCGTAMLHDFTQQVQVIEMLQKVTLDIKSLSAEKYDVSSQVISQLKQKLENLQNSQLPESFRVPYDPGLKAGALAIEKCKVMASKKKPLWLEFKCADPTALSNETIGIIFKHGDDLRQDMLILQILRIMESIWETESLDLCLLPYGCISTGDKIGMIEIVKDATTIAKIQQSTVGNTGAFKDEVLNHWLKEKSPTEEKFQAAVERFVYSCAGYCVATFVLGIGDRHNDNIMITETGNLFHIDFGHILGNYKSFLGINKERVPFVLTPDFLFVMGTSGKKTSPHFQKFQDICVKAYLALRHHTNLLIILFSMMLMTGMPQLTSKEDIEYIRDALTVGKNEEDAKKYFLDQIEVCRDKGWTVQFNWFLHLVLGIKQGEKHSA
The test system of series [6] is THP-1 cells. To be noted: cited from earlier work; for THP1 pIC50: supplementary csv, flagged as reported previously in the main tables.
The subject of series [7] is L. donovani amastigotes. The experiment in a line: INMAC assay: intramacrophage L. donovani in differentiated THP-1 cells. The class given is cell-based, Leishmania donovani. To be noted: for EC90: INMAC; for LdInMac pIC50: supplementary csv. The gist of the method:
as §1

In series [8] the test system is infected mouse model of VL. Briefly: Infected mouse model of VL. The note with it: 50 mg/kg ip, b.i.d for 5 days. Format: in vivo.
Description: In vivo Mouse Efficacy Studies. In vivo studies were carried out as previously described, with minor modifications.7 Briefly: Control drug used was Miltefosine (30 mg/kg orally, twice daily for 5 days), vehicle used was 10% (v/v) dimethyl sulfoxide (DMSO), 40% polyethylene glycol 400, and 50% deionized water (10 Ml/kg orally, twice daily for 5 days) and mice were treated with test compound intraperitoneally (50 mg/kg twice daily for 5 days).
On the set-up of series [9]: method as in PMID 30962368. To be noted: after 3 h; cited from earlier work.
Details of series [10]: method as in PMID 30962368. To be noted: after 3 h; cited from earlier work. The source holds these as a separate data set.
A short description of the next series: in vivo. The note with it: mouse. The class given is in vivo. The method, then:
Intramacrophage L. donovani Assay. This assay was conducted as previously described, except for compound exposure time, which was 96 h instead of 72 h.4 […]
All regulated procedures on living animals were carried out under the authority of a project license issued by the Home Office under the Animals (Scientific Procedures) Act 1986, as amended in 2012 (and in compliance with EU Directive EU/2010/63). Infected animals had access to food and water ad libitum and were housed under a 12 hour light/dark photoperiod. Animals used in these experiments were female NMRI and Balb/c mice (Harlan, UK).
Test compound DDD01008714 was dosed orally (P.O.) at 10 mg free base/kg (dose volume 10 mL/kg; dose vehicle: 10% (vol/vol) dimethyl sulfoxide (DMSO), 40% polyethylene glycol 400 (PEG400) and 50% deionized water) to female NMRI mice (n = 3) or intravenously (I.V.) at 3 mg free base/kg (dose volume 5 mL/kg; dose vehicle: 10% (vol/vol) dimethyl sulfoxide (DMSO) and 90% Saline) to female Balb/c mice (n = 3). Blood samples (10 μL) where taken from the tail vein of […]
samples for I.V. leg only) and mixed with two volumes of deionized water (20 μL). After suitable sample preparation, the concentration of test compound in the whole blood from treated mice was determined by UPLC-MS/MS using a Quattro Premier XE (Waters, USA). Pharmacokinetic parameters were derived from the mean blood concentration time curve using PK solutions software v 2.0 (Summit Research Services, USA). […]
of concentration vs. Time for 4, dosed at 10 mg/kg. Extrapolated to 50 mg/kg assuming a linear dose increase, showing potential coverage above EC90 for approximately 6 hours […]
(1 picture or pasted object on this page, not shown here)

For series [11] the following is noted: supplementary csv; flagged as reported previously in Table 5; cited from earlier work.
Series [12] has as its system THP-1 cells. The experiment in a line: THP-1 host cell read-out of the INMAC assay. Format: cell-based. The gist of the method: as §1
Series [13] in a line: Mouse liver microsomal intrinsic clearance. The note with it: for Mouse CLi: Table 6, mouse liver microsomes; for Cli (mouse, ml/min/g): supplementary csv. Format: in vitro ADME. (Liver microsomes are vesicles of endoplasmic reticulum, rich in cytochrome P450 enzymes.)
Series [14] in a line: FaSSIF (fasted state simulated intestinal fluid) solubility. The class given is physicochemical.
Where [15] appears, read: Table 6, kinetic, CLND, read-out: Aq. solubility.
Where [16] appears, read: female, Balb/c, in vivo, iv PK 3 mg/kg.
Where [17] appears, read: female, NMRI, in vivo, po PK 10 mg/kg.
The mark [18] stands for this setting: Table 6, at least three replicates, SD ≤0.4.

In brackets after ≈: the same amount, converted by molar mass. Like-named read-outs stand apart in the source and are kept apart here. Marks after values point to notes of the source that are not given here.

What is called solubility is how much of the substance goes into solution per volume. As usually defined, the AUC is concentration integrated over time. Low readings indicate low exposure, high ones high exposure. One may read the half-life as the time needed for the level to fall by half in the phase considered. Low values mean fast loss, high ones slow loss. Usually bioavailability stands for dose-corrected exposure relative to a reference, in per cent. Read a high bioavailability as good availability. In general, Cmax refers to the maximum level reached in the sampled fluid or tissue. As a reminder, the Tmax is the time from dosing to the highest level. One may read the Aqueous Solubility as the concentration that dissolves in the medium under given conditions.

Sequence of AuroraB (Q96GD4 whole entry): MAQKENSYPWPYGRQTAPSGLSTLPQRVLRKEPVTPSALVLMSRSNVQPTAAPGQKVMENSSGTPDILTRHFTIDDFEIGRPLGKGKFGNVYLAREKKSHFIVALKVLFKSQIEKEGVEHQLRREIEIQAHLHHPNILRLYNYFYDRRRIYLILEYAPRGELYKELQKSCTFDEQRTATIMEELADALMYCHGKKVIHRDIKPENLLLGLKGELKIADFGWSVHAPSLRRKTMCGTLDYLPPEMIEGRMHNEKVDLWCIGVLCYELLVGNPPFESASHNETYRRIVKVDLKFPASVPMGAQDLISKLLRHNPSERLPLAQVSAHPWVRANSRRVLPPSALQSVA
Sequence of LCK (P06239 whole entry): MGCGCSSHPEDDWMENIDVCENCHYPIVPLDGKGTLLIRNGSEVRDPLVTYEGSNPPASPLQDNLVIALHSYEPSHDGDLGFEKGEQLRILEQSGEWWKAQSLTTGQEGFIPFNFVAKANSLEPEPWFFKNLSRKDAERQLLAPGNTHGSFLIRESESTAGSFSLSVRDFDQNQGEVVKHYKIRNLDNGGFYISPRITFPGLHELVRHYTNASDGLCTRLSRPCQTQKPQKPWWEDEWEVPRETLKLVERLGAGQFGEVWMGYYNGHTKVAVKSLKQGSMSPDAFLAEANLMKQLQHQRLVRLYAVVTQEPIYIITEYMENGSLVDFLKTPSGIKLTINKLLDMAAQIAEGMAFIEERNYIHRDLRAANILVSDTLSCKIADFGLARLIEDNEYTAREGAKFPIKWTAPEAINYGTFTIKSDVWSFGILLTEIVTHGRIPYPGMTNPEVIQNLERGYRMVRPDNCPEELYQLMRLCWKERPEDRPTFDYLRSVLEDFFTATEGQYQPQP

Consider `O=C(Nc1ccc(F)c(-c2ccn3c(N4CCOCC4)cnc3n2)c1)N1CCCC1` [Compound 1], for which the “pIC50 AuroraB” value against AuroraB was under 4.5. Also, the “Mouse CLi” value in [1] (Table 6, mouse liver microsomes) is given as 0.8^e mL/min/g. Moreover, the “pIC50 LCK” value against LCK was under 4.5. The Ames assay result in series [2] is recorded as “negative”. The predicted safety margin result in series [3] was “at least 37 fold”. The solubility in [4] (setting [15]) stood at 420 µM (≈ 172 µg/mL). Also, the “INMAC pEC50” value in the series on L. donovani amastigotes [5] (Table 5) is 5.8. Moreover, the “LdInMac pIC50” value with L. donovani amastigotes [5] was 5.8. The “pIC50 PI3Kγ” value at PI3Kγ is listed as under 4.5. Besides, in the series with THP-1 cells [6] (Table 5), the “THP-1 pEC50” value was under 4.3. Further, the “THP1 pIC50” value with THP-1 cells [6] is under 4.3.

For `O=C(Nc1cccc(-c2nc3ncccc3o2)c1)c1ccco1` [Compound 3], in the series on L. donovani amastigotes [5] (Table 3), the “INMAC pEC50” value is given as 5.2. The “THP-1 pEC50” value in the series on THP-1 cells [6] (Table 3) is under 4.3.

As to `O=C(Nc1ccc(F)c(-c2cn3cc(N4CCOCC4)cnc3n2)c1)N1CCCC1` [Compound 4], the EC90 in the series on L. donovani amastigotes [7] (Leishmania donovani, THP-1, pEC90 5.7 expressed as concentration, read-out: EC90) is 0.78 µg/mL; with L. donovani amastigotes [7] (Leishmania donovani, THP-1, read-out: pEC90 (converted)) it was 2 µM. Moreover, the CLi in series [1] (Table 1, mouse liver microsomes) was under 0.5 mL/min/g. In addition, the “Mouse CLi” value in [1] (Table 2, mouse liver microsomes) was <0.5^e mL/min/g. For the same compound, in series [1] (supplementary csv, mouse, flagged as reported previously in the main tables), the “Cli (mouse, ml/min/g)” value was under 0.5 mL/min/g. For the same compound, in series [2], the Ames assay result is listed as “positive”. Moreover, in series [8], the “% reduction in parasitemia” value is 98%. Moreover, the solubility was determined as 150 µM (≈ 61.6 µg/mL) in [4] (Table 1, kinetic solubility, CLND, read-out: aqueous solubility) and 150 µM (≈ 61.6 µg/mL) in series [4] (Table 2, kinetic, CLND, read-out: Aq. solubility). The “INMAC pEC50” value is on record as 6.2 with L. donovani amastigotes [5] (Table 1, five independent replicates, SD ≤0.2) and 6.2^e in the series on L. donovani amastigotes [5] (Table 2). For the same compound, in the series on L. donovani amastigotes [5], the “LdInMac pIC50” value is 6.2. Besides, the “human plasma stability, compound remaining” value in [9] was 100%. In addition, the “mouse plasma stability, compound remaining” value in [10] is given as 100%. Also, the “THP-1 cells pEC50” value with THP-1 cells [6] (Table 1) is listed as under 4.3. The “THP1 pIC50” value in the series with THP-1 cells [6] is listed as under 4.3. In addition, the values for the AUC at 24 h in the series “in vivo” (setting [16]) and in “in vivo” (setting [17]) were 2250 ng·h/mL and 4300 ng·h/mL, respectively. In “in vivo” (setting [16]), this compound had a half-life at 24 h of 30 min. In addition, the bioavailability at 24 h in “in vivo” (female, NMRI, in vivo, po PK 10 mg/kg vs iv 3 mg/kg) turned out to be 57%. In addition, the Cmax at 24 h in “in vivo” (setting [17]) worked out at 1300 ng/mL. The Tmax at 24 h in the series “in vivo” (setting [17]) was found to be 30 min. Also, the Clb in “in vivo” (iv PK 3 mg/kg) was found to be 22 mL/min/kg. In the series “in vivo” (listed under po PK (10 mg/kg)), this compound registered a Vdss of 0.8 L/kg. The “time with blood levels above EC90” value in the series “in vivo” (oral dose of 10 mg/kg) is “around 2 h”.

As to `O=C(Nc1ccc(F)c(-c2nc3cc(N4CCOCC4)cnn3n2)c1)N1CCCC1` [Compound 24, N-(4-Fluoro-3-(7-morpholino-[1,2,4]triazolo[1,5-b]pyridazin-2-yl)phenyl)pyrrolidine-1-carboxamide], in series [11], the “Aqueous Solubility” value is 420 µM. The “INMAC pEC50” value with L. donovani amastigotes [5] (Table 5) is given as 6.1. In addition, the “LdInMac pIC50” value in the series with L. donovani amastigotes [5] is 6.1. The “THP-1 pEC50” value in the series with THP-1 cells [6] (Table 5) is reported as under 4.3. Further, the “THP1 pIC50” value in the series on THP-1 cells [6] is given as under 4.3.

`CC(C)Nc1cnc2nc(-c3cc(NC(=O)N4CCCC4)ccc3F)ccn12` [Compound 45, N-(4-Fluoro-3-(3-(isopropylamino)imidazo[1,2-a]pyrimidin-7-yl)phenyl)pyrrolidine-1-carboxamide]: the EC50 with L. donovani amastigotes [7] (Leishmania donovani, THP-1, Table 6, at least three replicates, SD ≤0.4, read-out: INMAC pEC50 (converted)) is 2.51 µM; in the series with THP-1 cells [12] (Homo sapiens, THP-1, Table 6, read-out: THP-1 pEC50 (converted)), 50.1 µM. For the same compound, the IC50 with THP-1 cells [12] (Homo sapiens, THP-1, supplementary csv, read-out: THP1 pIC50 (converted)) is 50.1 µM. The “Mouse CLi” value in series [13] is recorded as 5.2 mL/min/g. For the same compound, the “Cli (mouse, ml/min/g)” value in series [13] came out at 5.2 mL/min/g. The compound also gave a solubility at 4 h in series [14] (pH 6.5, Table 6) of 13 µM (≈ 4.97 µg/mL). The solubility in series [4] (setting [15]) was found to be 124 µM (≈ 47.4 µg/mL); in series [4] (supplementary csv, read-out: Aqueous Solubility), 120 µM (≈ 45.9 µg/mL).

“(R)-N-(4-Fluoro-3-(3-(3-methylmorpholino)imidazo[1,2-a]pyrimidin-7-yl)phenyl)pyrrolidine-1-carboxamide [Compound 39]”: the “INMAC pEC50” value in the series on L. donovani amastigotes [7] (setting [18]) came to 5.9. Moreover, the “LdInMac pIC50” value in the series on L. donovani amastigotes [7] turned out to be 5.9. In addition, in the series with THP-1 cells [12] (Table 6), the “THP-1 pEC50” value worked out at 4.3. Besides, in the series with THP-1 cells [12] (supplementary csv), the “THP1 pIC50” value was 4.3. In addition, in [13], the “Mouse CLi” value turned out to be 2.7 mL/min/g and the “Cli (mouse, ml/min/g)” value came out at 2.7 mL/min/g. Besides, the FaSSIF solubility in [14] (Table 6) is on record as 1,322 μM. In addition, the “FaSSIF solubility” value in [14] (supplementary csv) was over 1000 µM. In series [4] (setting [15]), the solubility was at least 362 µM. Further, in [4] (supplementary csv), the “Aqueous Solubility” value was at least 360 µM.

“(S)-N-(4-Fluoro-3-(3-(3-methylmorpholino)imidazo[1,2-a]pyrimidin-7-yl)phenyl)pyrrolidine-1-carboxamide [Compound 40]”: the “INMAC pEC50” value in the series with L. donovani amastigotes [7] (setting [18]) came out at 6.0. Also, in the series on L. donovani amastigotes [7], the “LdInMac pIC50” value is 6. The “THP-1 pEC50” value in the series on THP-1 cells [12] (Table 6) came to 4.3. In addition, in the series on THP-1 cells [12] (supplementary csv), the “THP1 pIC50” value was 4.3. Moreover, in series [13], the “Mouse CLi” value stood at 1.8 mL/min/g. In addition, the “Cli (mouse, ml/min/g)” value in series [13] amounted to 1.8 mL/min/g. The FaSSIF solubility in series [14] (Table 6) was 1,578 μM; in [14] (supplementary csv), over 1000 µM. Further, the solubility in [4] (setting [15]) stood at 345 µM. In addition, the “Aqueous Solubility” value in series [4] (supplementary csv) is 350 µM.
